From patent US5763596A, “C-4' modified adenosine kinase inhibitors” (Metabasis Therapeutics, Inc., priority 1996, dated 1998) come the findings set out here.

Molecules are shown by their SMILES.

For one series, the system named is Rats. The series can be described thus: anti-inflammatory activity, carrageenan paw. It is filed as in vivo, rat. The following applies: 10 mg/kg, swelling after 3 hours. On the procedure: Carrageenan (Type λ) was suspended in sterile PBS at 1% (w/v), autoclaved for 30 minutes, and stored at room temperature. Rats were pretreated with vehicle or AK inhibitor (10 mg/kg) by oral gavage or i.p. administration and the volume of the left hind paw was measured using a water displacement plethysmometer (Stoelting Co., Wood Dale, Ill.). One hour after oral treatment or 30 minutes after i.p. treatment, the rats were briefly anaesthetized, and 0.1 ml of the carrageenan solution was injected subcutaneously into the planar surface of the left hind paw. The ensuing paw swelling was measured by plethysmometry after 3 hours. The paw volume in milliliters was subtracted from the pre-injection paw volume. Data are presented in Table 8 as the percent inhibition of paw swelling in AK inhibitor treated animals, compared to vehicle treated control animals.

The next series concerns Female SA rats. The series can be described thus: liver toxicity, serum SGOT, SGPT and total bilirubin. The series is classed as in vivo, rat. Set-up: unit not given here. The following applies: 2 x 37.5 μmol/kg i.v. infusion (total 75 μmol/kg), 12 h after second dose. On the procedure:
Female SA rats (150-200 g) were anesthetized with halothane and cannulated via the internal jugular vein. The animals were allowed to recover for 3 days. […] Twelve hours later, an additional 37.5 μmol kg was infused over 40 minutes (total dose=75 μmol/kg). Twelve hours after the second dose, the animals were anesthetized with halothane and exsanguinated through the descending aorta. Serum was prepared and liver enzymes (serum glutamic-oxaloacetic transaminase (SGOT), serum glutamic-pyruvic transaminase (SGPT)) and total bilirubin in the serum samples were determined by a commercial laboratory.

With `O[C@@H]1[C@H](O)CO[C@H]1n1cc(-c2ccccc2)c2c(Nc3ccc(F)cc3)ncnc21` [compound 28], the “Carrageenan Paw (% inh) i.p.” value with Rats (i.p., 30 min before carrageenan) was determined as 52%. Moreover, the “Carrageenan Paw (% inh) p.o.” value in the series with Rats (p.o., 1 h before carrageenan) is given as 25%. In the series on Female SA rats, the “average serum Total Bilirubin” value is reported as 0.07, the “average serum content of SGOT” value is 61 and the “average serum content of SGPT” value was found to be 23.
